{"source": "paper PMC12376232", "about": "(Journal of the Colleges of Medicine of South Africa, 2023)", "key": {"[1]": {"system": "benign thyroid diseases", "assay": "I-131 therapy of benign thyroid diseases, retrospective analysis", "assay_type": "in vivo", "conditions": "127 patients", "experimental": "A retrospective analysis was carried out for patients with benign thyroid conditions who underwent single or double I-131 therapy for benign thyroid disease at our department between January 2009 and December 2021. The thyroid function status of the patients was also documented prior to discharge."}, "[2]": {"system": "rodents", "conditions": "in vivo"}}}
{"smiles": "[131IH]", "note": "[RAI]", "values": [{"measurement": "patients who required retreatment as they remained hyperthyroid", "setting": "[1]; after single RAI therapy, n = 33", "result": 26, "unit": "%"}, {"measurement": "patients who responded to the single RAI therapy (euthyroid or hypothyroid)", "setting": "[1]; empirical dose 10 mCi to 40 mCi, n = 94", "result": "Seventy-four per cent"}, {"measurement": "patients euthyroid on discharge", "setting": "[1]; single or double I-131 therapy, n = 40", "result": 31, "unit": "%"}, {"measurement": "patients hypothyroid on discharge", "setting": "[1]; single or double I-131 therapy, n = 83", "result": 66, "unit": "%"}]}
{"smiles": "CC(C)c1cccc(C(C)C)c1O", "note": "[Propofol, propofol]", "values": [{"measurement": "effect on glucose metabolism", "setting": "[2]", "result": "decreased cerebral glucose metabolism"}]}
{"smiles": "CCCC(C)C1(CC)C(=O)NC(=O)NC1=O", "note": "(stereo not drawn) [Pentobarbital, pentobarbital]", "values": [{"measurement": "effect on glucose metabolism", "setting": "[2]", "result": "does not alter the blood glucose metabolism"}, {"measurement": "safety margin for rodent anaesthesia", "setting": "[2]", "result": "lower safety margin"}]}
{"smiles": "FCOC(C(F)(F)F)C(F)(F)F", "note": "[sevoflurane]", "values": [{"measurement": "effect on glucose metabolism", "setting": "[2]", "result": "induced hypoglycaemia"}]}
{"smiles": "FC(F)OC(Cl)C(F)(F)F", "note": "(stereo not drawn) [isoflurane]", "values": [{"measurement": "effect on glucose metabolism", "setting": "[2]", "result": "induced hypoglycaemia"}]}
